# Experimental data published in patent US12590079B2, “Compounds and uses thereof” (FOGHORN THERAPEUTICS INC., priority 2019, dated 2026).
# Key:
# Type in all cases: cell-based
# [1] = tested on: non-synovial control cancer cell lines (RD, HCT116, and Calu6); assay: Crystal violet cell growth, non-synovial control lines, Example 3; settings: treated daily, stained by day 14
# Experimental: (§1) Procedure: Cells were seeded into 6-well or 12-well plates and were treated daily with a BRD9 degrader (Compound 1), a bromo-domain BRD9 binder (Compound 2), E3 ligase binder (lenalidomide), DMSO, or staurosporin (positive control for cell killing), at indicated concentrations. The number of cells was optimized for each cell line. Growth media was refreshed every 5 days. By day 14, medium was removed, cells were washed with PBS, and stained using 500 μL of 0.005% (w/v) crystal violet solution in 25% (v/v) methanol for at least 1 hour at room temperature. Subsequently plates were scanned on an Odyssey CLx Imaging system.
# [2] = tested on: synovial sarcoma cell lines (SYO1, Yamato, HS-SY-II, and ASKA); assay: Cell growth (confluency, crystal violet, colony imaging), synovial sarcoma cell lines, Example 2; settings: 1 μM or indicated concentrations, day 11 to 23
# Experimental: (§2) Cells were treated with DMSO or the BRD9 degrader, Compound 1, at indicated concentrations, and proliferation was monitored from day 7 to day 14 by measuring confluency overtime using an IncuCyte live cell analysis system (FIG. 5). Growth medium and compounds were refreshed every 3-4 days.
# (§3) Cells were seeded into 12-well plates and treated with DMSO, 1 μM BRD9 inhibitor, Compound 2 (also known as BI-7273, see Martin et al, J Med Chem. 59(10):4462-4475 (2016); see structure of compound 2 below), or 1 μM BRD9 degrader, Compound 1.
# (§4) The number of cells was optimized for each cell line. Growth medium and compounds were refreshed every 3-5 days. SYO1, Yamato, A549, 293T and HS-SY-II cells were fixed and stained at day 11. ASKA cells were fixed and stained at day 23. Staining was done by incubation with crystal violet solution (0.5 g Crystal Violet, 27 ml 37% Formaldehyde, 100 mL 10×PBS, 10 mL Methanol, 863 dH20 to 1 L) for 30 min followed by 3× washes with water and drying the plates for at least 24 h at room temperature. Subsequently plates were scanned on an Odyssey CLx Imaging system (FIG. 6).
# (§5) Cells were seeded into 96-well ultra-low cluster plate (Costar, #7007) in 200 μL complete media and treated at day 2 with DMSO, Staurosporin, or BRD9 degrader, Compound 1, at indicated doses (FIG. 3C). Media and compounds were changed every 5 d and cell colonies were imaged at day 14.
# [3] = tested on: non-synovial control cancer cell lines (293T, A549, G401); assay: Cell growth (confluency, crystal violet, colony imaging), non-synovial control lines, Example 2; settings: 1 μM or indicated concentrations
# Experimental: as §2, §3, §4, §5
# [4] = tested on: synovial sarcoma cell lines (SYO1, HS-SY-II, and ASKA); assay: Crystal violet cell growth, synovial sarcoma cell lines, Example 3; settings: for inhibition of the growth of the cells: SYO1, HS-SY-II, ASKA, treated daily, stained by day 14
# Experimental: as §1
# [5] = biological target: T1, Nanoluciferase-BRD9 fusion protein (3×FLAG-NLuc-BRD9) (Homo sapiens, UniProt Q9H8M2); assay: SYO1 BRD9 NanoLuc degradation assay; settings: SYO-1 cells expressing 3×FLAG-NLuc-BRD9, 6 hours, top dose 1 μM; read-out: SYO1 BRD9-NanoLuc degradation IC50
# T1 construct: expressed in transfected cells
# T1 sequence (Q9H8M2 1-597): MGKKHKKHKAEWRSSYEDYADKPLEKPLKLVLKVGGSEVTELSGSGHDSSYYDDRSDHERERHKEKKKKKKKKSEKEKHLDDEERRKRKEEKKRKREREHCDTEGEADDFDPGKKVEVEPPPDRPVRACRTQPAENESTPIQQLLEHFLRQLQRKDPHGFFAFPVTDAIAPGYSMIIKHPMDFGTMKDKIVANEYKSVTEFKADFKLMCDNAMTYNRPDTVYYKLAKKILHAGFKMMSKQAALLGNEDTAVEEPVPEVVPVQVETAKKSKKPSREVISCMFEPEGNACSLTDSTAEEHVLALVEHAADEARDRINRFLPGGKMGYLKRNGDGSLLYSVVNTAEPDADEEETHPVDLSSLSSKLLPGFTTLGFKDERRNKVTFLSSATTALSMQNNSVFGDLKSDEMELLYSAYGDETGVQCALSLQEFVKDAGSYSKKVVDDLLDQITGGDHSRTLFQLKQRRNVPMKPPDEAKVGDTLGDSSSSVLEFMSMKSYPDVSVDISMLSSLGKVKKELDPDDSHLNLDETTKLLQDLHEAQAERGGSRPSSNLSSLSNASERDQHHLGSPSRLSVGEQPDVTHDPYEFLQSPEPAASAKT
# Experimental: Procedure: A stable SYO-1 cell line expressing 3×FLAG-NLuc-BRD9 was generated. On day 0 cells were seeded in 30 μL media into each well of 384-well cell culture plates. The seeding density was 8000 cells/well. On day 1, cells were treated with 30 nL DMSO or 30 nL of 3-fold serially DMSO-diluted compounds (10 points in duplicates with 1 μM as final top dose). Subsequently plates were incubated for 6 hours in a standard tissue culture incubator and equilibrated at room temperature for 15 minutes. Nanoluciferase activity was measured by adding 15 μL of freshly prepared Nano-Glo Luciferase Assay Reagent (Promega N1130), shaking the plates for 10 minutes and reading the bioluminescence using an EnVision reader.
# Results: The Inhibition % was calculated using the following formula: % Inhibition=100×(LumHC−LumSample)/(LumHC−LumLC). DMSO treated cells are employed as High Control (HC) and 1 μM of a known BRD9 degrader standard treated cells are employed as Low Control (LC).
# SYO1 cells [6] = assay: Cell cycle analysis (Click-iT Plus EdU flow cytometry); settings: 200 nM or 1 μM, 8 or 13 days, compared to DMSO and lenalidomide
# Experimental: (§6) Procedure: SYO1 cells were treated for 8 or 13 days with DMSO, a BRD9 degrader (Compound 1) at 200 nM or 1 μM, or an E3 ligase binder (lenalidomide) at 200 nM. Compounds were refreshed every 5 days. Cell cycle analysis was performed using the Click-iT™ Plus EdU Flow Cytometry Assay (Invitrogen). The apoptosis assay was performed using the Annexin V-FITC Apoptosis Detection Kit (Sigma A9210). Assays were performed according to the manufacturer's protocol.
# SYO1 cells [7] = assay: Apoptosis assay (Annexin V-FITC); settings: 200 nM or 1 μM, 8 days, compared to DMSO controls
# Experimental: as §6
DC50 [5] [nM],SMILES,inhibition of the growth of the cells [1],inhibition of the growth of the cells [2],inhibition of the growth of the cells [3],inhibition of the growth of the cells [4],numbers of cells in the S-phase of the cell cycle (SYO1 cells [6]),numbers of early- and late-apoptotic cells (SYO1 cells [7]),"growth inhibition compared with the other treatments ([4]; all synovial cell lines, vs Compound 2 and lenalidomide)"
–,"COc1cc(-c2cn(C)c(=O)c3cnccc23)cc(OC)c1CN(C)C [Compound 2, BI-7273]",did not result in inhibition of the growth,results in inhibition of the growth of the cells,does not result in inhibition of the growth,resulted in inhibition of the growth of the cells,–,–,–
< 10,"COc1cc(C2=CN(C)C(=O)N(C)C2)cc(OC)c1CN1CCC(CCN2CCN(c3ccc4c(c3)CN(C3CCC(=O)NC3=O)C4=O)CC2)CC1 (centres unmarked) [Compound D2, 3-(5-[4-[2-(1-[[4-(1,3-dimethyl-2-oxo-4H-pyrimidin-5-yl)-2,6-dimethoxyphenyl]methyl]piperidin-4-yl)ethyl]piperazin-1-yl]-1-oxo-3H-isoindol-2-yl)piperidine-2,6-dione]",–,–,–,–,–,–,–
< 10,"COc1cc(C2=CN(C)C(=O)N(C)C2)cc(OC)c1CN1CCC(CCN2CCN(c3ccc4c(c3)C(=O)N(C3CCC(=O)NC3=O)C4)CC2)CC1 (centres unmarked) [Compound D1, 3-(6-[4-[2-(1-[[4-(1,3-dimethyl-2-oxo-4H-pyrimidin-5-yl)-2,6-dimethoxyphenyl]methyl]piperidin-4-yl)ethyl]piperazin-1-yl]-1-oxo-3H-isoindol-2-yl)piperidine-2,6-dione]",–,–,–,–,–,–,–
< 10,"COc1cc(C2=CN(C)C(=O)N(C)C2)cc(OC)c1CN1CCN(CCC2CCN(c3ccc4c(c3)CN(C3CCC(=O)NC3=O)C4=O)CC2)CC1 (centres unmarked) [Compound D3, 3-(5-[4-[2-(4-[[4-(1,3-dimethyl-2-oxo-4H-pyrimidin-5-yl)-2,6-dimethoxyphenyl]methyl]piperazin-1-yl)ethyl]piperidin-1-yl]-1-oxo-3H-isoindol-2-yl)piperidine-2,6-dione Formic Acid]",–,–,–,–,–,–,–
–,"COc1cc(-c2cn(C)c(=O)c3cnccc23)cc(OC)c1CN(C)CC(=O)NCCOCCOCCNc1cccc2c1C(=O)N(C1CCC(=O)NC1=O)C2=O (centres unmarked) [Compound 1, dBRD9]",did not result in inhibition of the growth,results in inhibition of the growth of the cells,does not result in inhibition of the growth,resulted in inhibition of the growth of the cells,reduced numbers of cells in the S-phase of the cell cycle,increased numbers of early- and late-apoptotic cells,most significant growth inhibition in all synovial cell lines
